Results: the NIST ThermoML archive (doi:10.1021/je800012v)

Assay: xn = mol fraction of the nth substance listed
Conditions: Liquid

CCCCCl [1-chlorobutane] + CCCCCC
mass density [kg/m3]
Conditions | x1 = 0.1099 | x1 = 0.212 | x1 = 0.2925 | x1 = 0.316 | x1 = 0.405 | x1 = 0.4978 | x1 = 0.5975 | x1 = 0.6869 | x1 = 0.8294 | x1 = 0.9025
283.15 K, 100 kPa | 688.16 | 707.78 | 724.14 | 728.91 | 747.8 | 768.4 | 791.4 | 813.19 | 849.71 | 869.66
283.15 K, 2500 kPa | 690.51 | 710.17 | 726.49 | 731.23 | 750.19 | 770.77 | 793.76 | 815.54 | 852.04 | 871.97
283.15 K, 5000 kPa | 692.85 | 712.52 | 728.83 | 733.62 | 752.56 | 773.13 | 796.11 | 817.89 | 854.38 | 874.31
283.15 K, 10000 kPa | 697.27 | 716.94 | 733.31 | 738.08 | 757.05 | 777.64 | 800.62 | 822.39 | 858.86 | 878.8
283.15 K, 15000 kPa | 701.44 | 721.17 | 737.55 | 742.33 | 761.32 | 781.91 | 804.89 | 826.69 | 863.18 | 883.07
283.15 K, 20000 kPa | 705.42 | 725.18 | 741.57 | 746.36 | 765.38 | 785.99 | 808.98 | 830.8 | 867.28 | 887.19
283.15 K, 25000 kPa | 709.18 | 728.95 | 745.4 | 750.17 | 769.24 | 789.87 | 812.89 | 834.7 | 871.21 | 891.13
283.15 K, 30000 kPa | 712.77 | 732.59 | 749.06 | 753.86 | 772.94 | 793.59 | 816.62 | 838.47 | 875.01 | 894.92
283.15 K, 35000 kPa | 716.2 | 736.03 | 752.55 | 757.33 | 776.47 | 797.15 | 820.23 | 842.08 | 878.63 | 898.57
293.15 K, 100 kPa | 679 | 698.47 | 714.61 | 719.31 | 738.08 | 758.47 | 781.32 | 802.85 | 839.13 | 858.87
293.15 K, 2500 kPa | 681.5 | 701.01 | 717.13 | 721.84 | 740.6 | 761 | 783.84 | 805.38 | 841.63 | 861.35
293.15 K, 5000 kPa | 684.03 | 703.52 | 719.69 | 724.38 | 743.13 | 763.54 | 786.39 | 807.91 | 844.15 | 863.85
293.15 K, 10000 kPa | 688.77 | 708.3 | 724.48 | 729.18 | 747.97 | 768.33 | 791.18 | 812.71 | 848.93 | 868.63
293.15 K, 15000 kPa | 693.23 | 712.77 | 728.99 | 733.71 | 752.5 | 772.88 | 795.72 | 817.27 | 853.49 | 873.18
293.15 K, 20000 kPa | 697.41 | 717.01 | 733.23 | 737.99 | 756.78 | 777.19 | 800.04 | 821.6 | 857.83 | 877.51
293.15 K, 25000 kPa | 701.41 | 721.03 | 737.29 | 742.03 | 760.9 | 781.3 | 804.2 | – | – | –
